From patent publication US9029337B2, “Modulation of factor 7 expression” (Isis Pharmaceuticals, Inc., priority 2007, dated 2015)
Strand notation (5' to 3'): a small letter for the sugar, then the base; units joined by * are phosphorothioate-linked, units joined directly phosphodiester-linked; [ ] holds rarer units or linkages, { } end groups; capitals alone tell only the bases. e = 2'-O-(2-methoxyethyl) (MOE); [5mC] = 5-methylcytosine; d = 2'-deoxy (DNA)

Assays:
Format in all cases: cell-based
human Factor 7 mRNA [1] = assay: Dose-dependent antisense inhibition of human Factor 7 in HepB3 cells, lipofectin; conditions: HepB3 cells, approx. 16 hours (Table 14)
Procedure, shortened: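 HepB3 cells (4,000/well) lipofectin-transfected with antisense oligonucleotide at 3.125 or 6.25 up to 100 nM for ~16 h. Factor 7 mRNA measured by real-time RT-PCR with primer probe set RTS 2927, adjusted to RIBOGREEN total RNA; expressed as percent inhibition versus untreated control cells.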

human Factor 7 mRNA [2] = assay: Antisense inhibition of human Factor 7 mRNA in HepB3 cells, 50 nM antisense oligonucleotide, lipofectin; conditions: for % Inhibition of human Factor 7 mRNA levels: gapmers targeted to nucleobases 4868 to 4899 of SEQ ID NO: 1, Table 8; for % Inhibition: Table 13 (microwalk), 50 nM, lipofectin, approximately 24 hours
Procedure, shortened: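 After transfection of wells containing 4,000 cells, treatment ran for approximately 24 h. RIBOGREEN®-measured total RNA served for normalisation, and inhibition was calculated as a percentage of untreated control.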

human Factor 7 mRNA [3] = assay: Dose-dependent antisense inhibition of human Factor 7 in HepB3 cells, electroporation
Experimental: (§1) The gapmers were also transfected via electroporation and their dose-dependent inhibition of human Factor 7 mRNA was measured. Cells were plated at a density of 20,000 cells per well and transfected via electroporation with 3.125 μM, 6.25 μM, 12.5 μM, 25 μM, 50 μM, and 100 μM concentrations of antisense oligonucleotide, as specified in Table 15. After a treatment period of approximately 16 hours, RNA was isolated from the cells and Factor 7 mRNA levels were measured by quantitative real-time PCR. Human Factor 7 primer probe set RTS 2927 was used to measure mRNA levels. Factor 7 mRNA levels were adjusted according to total RNA content, as measured by RIBOGREEN®. Results are presented as percent inhibition of Factor 7, relative to untreated control cells.
as §1, with “Cells were” for “The gapmers were also transfected via electroporation and their dose-dependent inhibition of human Factor 7 mRNA was measured. Cells were”, “in […]. After a” for “in Table 15. After a”, “cells and human Factor 7” for “cells and Factor 7”

[4] = 3.125 μM, approx. 16 hours (Table 15, Example 7)
[5] = 6.25 μM, approx. 16 hours (Table 15, Example 7)
[6] = 12.5 μM, approx. 16 hours (Table 15, Example 7)
[7] = 25 μM, approx. 16 hours (Table 15, Example 7)
[8] = 50 μM, approx. 16 hours (Table 15, Example 7)
[9] = 100 μM, approx. 16 hours (Table 15, Example 7)
[10] = 3.125 μM, approx. 16 hours (Table 16, Example 8 confirmation)
[11] = 6.25 μM, approx. 16 hours (Table 16, Example 8 confirmation)
[12] = 12.5 μM, approx. 16 hours (Table 16, Example 8 confirmation)
[13] = 25 μM, approx. 16 hours (Table 16, Example 8 confirmation)
[14] = 50 μM, approx. 16 hours (Table 16, Example 8 confirmation)
[15] = 100 μM, approx. 16 hours (Table 16, Example 8 confirmation)

Substance	percent inhibition of Factor 7 mRNA, relative to untreated control cells (human Factor 7 mRNA [1]; 3.125 nM) [%]	percent inhibition of Factor 7 mRNA, relative to untreated control cells (human Factor 7 mRNA [1]; 12.5 nM) [%]	percent inhibition of Factor 7 mRNA, relative to untreated control cells (human Factor 7 mRNA [1]; 25 nM) [%]	percent inhibition of Factor 7 mRNA, relative to untreated control cells (human Factor 7 mRNA [1]; 50 nM) [%]	percent inhibition of Factor 7 mRNA, relative to untreated control cells (human Factor 7 mRNA [1]; 100 nM) [%]	percent inhibition of Factor 7 mRNA, relative to untreated control cells (human Factor 7 mRNA [1]) [%]	percent inhibition of Factor 7 mRNA, relative to untreated control cells (human Factor 7 mRNA [3]; [4]) [%]	percent inhibition of Factor 7 mRNA, relative to untreated control cells (human Factor 7 mRNA [3]; [5]) [%]	percent inhibition of Factor 7 mRNA, relative to untreated control cells (human Factor 7 mRNA [3]; [6]) [%]	percent inhibition of Factor 7 mRNA, relative to untreated control cells (human Factor 7 mRNA [3]; [7]) [%]	percent inhibition of Factor 7 mRNA, relative to untreated control cells (human Factor 7 mRNA [3]; [8]) [%]	percent inhibition of Factor 7 mRNA, relative to untreated control cells (human Factor 7 mRNA [3]; [9]) [%]	% Inhibition of human Factor 7 mRNA levels (human Factor 7 mRNA [2]) [%]	other results
422096 (antisense eA*eG*eA*e[5mC]*eA*dA*dT*dG*dG*dT*d[5mC]*dA*dG*dG*dG*e[5mC]*eT*eG*eG*eT) [compound 422096]	17	43	60	68	82	23	26	30	46	50	62	85	–	% Inhibition (human Factor 7 mRNA levels) (human Factor 7 mRNA [2]; oligonucleotides targeted to nucleobases 11830 to 11869 of SEQ ID NO: 1 (Table 9)): 76%
422296 (antisense e[5mC]*e[5mC]*dG*dA*dG*dT*dT*d[5mC]*dT*dG*d[5mC]*dA*dG*dG*dA*eG*e[5mC]*eG*eG*e[5mC]) [compound 422296]	21	39	67	78	82	27	62	40	56	56	82	84	74	percent inhibition of Factor 7 mRNA, relative to untreated control cells (human Factor 7 mRNA [3]; [10]): 47%; percent inhibition of Factor 7 mRNA, relative to untreated control cells (human Factor 7 mRNA [3]; [11]): 44%; percent inhibition of Factor 7 mRNA, relative to untreated control cells (human Factor 7 mRNA [3]; [12]): 70%; percent inhibition of Factor 7 mRNA, relative to untreated control cells (human Factor 7 mRNA [3]; [13]): 78%; percent inhibition of Factor 7 mRNA, relative to untreated control cells (human Factor 7 mRNA [3]; [14]): 80%; percent inhibition of Factor 7 mRNA, relative to untreated control cells (human Factor 7 mRNA [3]; [15]): 82%
422295 (antisense e[5mC]*eG*dA*dG*dT*dT*d[5mC]*dT*dG*d[5mC]*dA*dG*dG*dA*dG*e[5mC]*eG*eG*e[5mC]*e[5mC]) [compound 422295]	17	44	64	80	85	22	10	8	37	58	68	80	74	–
422152 (antisense eA*eT*eG*d[5mC]*dA*dT*dG*dG*dT*dG*dA*dT*dG*d[5mC]*dT*dT*d[5mC]*eT*eG*eA) [compound 422152]	18	47	67	83	89	29	14	22	32	44	65	76	–	% Inhibition (human Factor 7 mRNA [2]): 74%
422217 (antisense eG*eA*eG*dT*dT*d[5mC]*dT*dG*d[5mC]*dA*dG*dG*dA*dG*d[5mC]*dG*dG*e[5mC]*e[5mC]*eT) [compound 422217]	8	45	63	79	83	18	15	19	29	55	61	83	75	–
422140 (antisense eG*eT*eT*e[5mC]*eT*dG*d[5mC]*dA*dG*dG*dA*dG*d[5mC]*dG*dG*e[5mC]*e[5mC]*eT*eA*eA) [compound 422140]	18	49	64	74	74	35	29	34	51	64	69	77	74	–
422215 (antisense eG*eT*eT*d[5mC]*dT*dG*d[5mC]*dA*dG*dG*dA*dG*d[5mC]*dG*dG*d[5mC]*d[5mC]*eT*eA*eA) [compound 422215]	13	54	65	84	82	30	11	9	31	50	68	84	73	–
422229 (antisense eA*eT*dG*d[5mC]*dA*dT*dG*dG*dT*dG*dA*dT*dG*d[5mC]*dT*eT*e[5mC]*eT*eG*eA) [compound 422229]	21	53	72	86	92	32	21	30	33	44	65	77	–	% Inhibition (human Factor 7 mRNA [2]): 71%; percent inhibition of Factor 7 mRNA, relative to untreated control cells (human Factor 7 mRNA [3]; [10]): 30%; percent inhibition of Factor 7 mRNA, relative to untreated control cells (human Factor 7 mRNA [3]; [11]): 45%; percent inhibition of Factor 7 mRNA, relative to untreated control cells (human Factor 7 mRNA [3]; [12]): 67%; percent inhibition of Factor 7 mRNA, relative to untreated control cells (human Factor 7 mRNA [3]; [13]): 79%; percent inhibition of Factor 7 mRNA, relative to untreated control cells (human Factor 7 mRNA [3]; [14]): 90%; percent inhibition of Factor 7 mRNA, relative to untreated control cells (human Factor 7 mRNA [3]; [15]): 92%
